Values of other authors, collected in patent publication US20240131116A1, “METHODS AND THREAPEUTIC COMBINATIONS FOR TREATING IDIOPATHIC INTRACRANIAL HYPERTENSION AND CLUSTER HEADACHES” (NBO PHARMA LLC, priority 2021, published 2024).

Assays:
[1] = in vivo
IIH [2] = conditions: for most frequent / most common side effects / visual field grades: topiramate 100 to 150 mg daily, acetazolamide 1000 to 1500 mg/day
[3] = human, in vivo
IIH [4] = test system: IIH
[5] = all patients treated

In the case of “L-alanyl-glycyl-L-cysteinyl-L-lysyl-L-asparagyl-L-phenylalanyl-L-phenylalanyl-L-tryptophyl-L-lysyl-L-threonyl-L-phenylalanyl-L-threonyl-L-seryl-L-cysteine (3->14)-disulfide [somatostatin]”, the biological half-life [1] is listed as 2-3 minutes.

In the case of `CC1(C)O[C@@H]2[C@@H](CO[C@@]3(COS(N)(=O)=O)OC(C)(C)O[C@@H]23)O1` [topiramate, 2,3:4,5-bis-O-(1-methylethylidene)-beta-D-fructopyranose sulfamate], the “weight loss, mean” value (IIH [2]; during 12 months period) is listed as 9.75 kg, the “most frequent / most common side effects” value (IIH [2]) is listed as “distal paresthesias, concentration difficulties and weight loss” and the visual field grades (IIH [2]) is listed as “Significant improvement”.

In the case of `NS(=O)(=O)c1ccc(N2CCCCS2(=O)=O)cc1` [sulthiame, p-(tetrahydro-2H-1,2-thiazin-2-yl)benzenesulfonamide, S,S-dioxide], the “patients with gastric complaints” value [3] is listed as “about 10%”.

In the case of `CC(=O)Nc1nnc(S(N)(=O)=O)s1` [acetazolamide, N-(5-sulfamoyl-1,3,4-thiadiazol-2-yl) acetamide], the “most frequent / most common side effects” value (IIH [2]) is listed as “fatigue and tingling of the hands and feet”, the visual field grades (IIH [2]) is listed as “Significant improvement” and the “vision (perimetric mean deviation, papilledema grade, vision-related quality of life) versus placebo” value (IIH [4]; maximum tolerated dose of up to 4 g/day) is listed as “improved vision”. The “adverse events significantly more frequent than in placebo group” value (IIH [4]; up to 4 g/day) was “paresthesia, dysgeusia, fatigue, decreased carbon dioxide level, nausea, vomiting, diarrhea, and tinnitus” and the “patients who discontinued treatment due to adverse events” value [5] was “Up to 20%”.
